Measured values: patent US8436023B2, “Cyclohexyl-azetidinyl antagonists of CCR2” (Janssen Pharmaceutica N.V., priority 2010, dated 2013)
pIC50: −log10 of the molar value.

Target: T1, CCR2 (Homo sapiens, UniProt P41597)
T1 construct: host or cells: THP-1 human monocytic cells
T1 sequence (P41597 1-360 isoform P41597-2): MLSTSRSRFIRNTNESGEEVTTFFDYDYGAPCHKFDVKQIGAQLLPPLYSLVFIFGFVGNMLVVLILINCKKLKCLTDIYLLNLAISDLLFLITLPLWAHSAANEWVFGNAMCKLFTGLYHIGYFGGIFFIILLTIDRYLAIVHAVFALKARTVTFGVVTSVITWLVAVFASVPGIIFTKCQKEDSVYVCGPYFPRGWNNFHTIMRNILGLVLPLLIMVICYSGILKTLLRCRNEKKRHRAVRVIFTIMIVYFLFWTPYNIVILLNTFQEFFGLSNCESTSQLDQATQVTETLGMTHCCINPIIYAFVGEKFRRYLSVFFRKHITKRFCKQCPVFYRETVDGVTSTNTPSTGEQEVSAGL
Assay: MCP-1 Receptor Binding Assay in THP-1 Cells
Conditions: 0.5 nM 125I labeled MCP-1, 2 hours at 30° C., less polar isomer tested where stated, read-out: Inhibition of MCP-1 Binding IC50, CCR2 Binding
Description: MCP-1 Receptor Binding Assay in THP-1 Cells
Human monocytic cell line THP-1 cells were obtained from American Type Culture Collection (Manassas, Va., USA). The THP-1 cells were grown in RPMI-1640 (RPMI: Roswell Park Memorial Institute Medium-cell culture growth media) supplemented with 10% fetal bovine serum in a humidified 5% CO2 atmosphere at 37° C. The cell density was maintained […].
THP-1 (cells were incubated with 0.5 nM ^125I labeled MCP-1 (Perkin-Elmer Life Sciences, Inc. Boston, Mass.) in the presence of varying concentrations of either unlabeled MCP-1 (R & D Systems, Minneapolis, Minn.) or test compound for 2 hours at 30° C. in a 96 well plate. Cells were then harvested onto a filter plate, dried, and 20 μL of Microscint 20 was added to each well. Plates were counted in a TopCount NXT, Microplate Scintillation & Luminescence Counter (Perkin-Elmer Life Sciences, Inc. Boston, Mass.). Blank values (buffer only) were subtracted from all values and drug treated values were compared to vehicle treated values. 1 μM cold MCP-1 was used for nonspecific binding.
Where an IC50 value was not obtained for a particular compound, the percent inhibition is provided at a test concentration of 25 μM.

| Compound | pIC50 |
| --- | --- |
| N#CC1CCC(N2CC(NC(=O)CNc3nn(C(N)=O)c4ccc(C(F)(F)F)cc34)C2)CC1 (stereo not drawn) [Example 87, 3-({[1-(4-Cyano-cyclohexyl)-azetidin-3-ylcarbamoyl]-methyl}-amino)-5-trifluoromethyl-indazole-1-carboxylic acid amide] | 6.28 |
| CC(C)NC(=O)n1nc(NCC(=O)NC2CN(C3CCC(C4CCCCC4)CC3)C2)c2cc(C(F)(F)F)ccc21 (stereo not drawn) [Example 93, 3-{[(1-Bicyclohexyl-4-yl-azetidin-3-ylcarbamoyl)-methyl]-amino}-5-trifluoromethyl-indazole-1-carboxylic acid isopropylamide] | 5.51 |
| CCOC1CCC(N2CC(NC(=O)CNc3nn(C)c4ccc(C(F)(F)F)cc34)C2)CC1 (stereo not drawn) [Example 36, N-[1-(4-Ethoxy-cyclohexyl)-azetidin-3-yl]-2-(1-methyl-5-trifluoromethyl-1H-indazol-3-ylamino)-acetamide] | 6.64 |
| CC(C)c1ncc(C2(O)CCC(N3CC(NC(=O)CNc4nn(C)c5ccc(C(F)(F)F)cc45)C3)CC2)s1 (stereo not drawn) [Example 24, N-{1-[4-Hydroxy-4-(2-isopropyl-thiazol-5-yl)-cyclohexyl]-azetidin-3-yl}-2-(1-methyl-5-trifluoromethyl-1H-indazol-3-ylamino)-acetamide] | 8.28 |
| O=C(CNc1noc2ccc(C(F)(F)F)cc12)NC1CN(C2CCC(C3CCCCC3)CC2)C1 (stereo not drawn) [Example 5, N-(1-Bicyclohexyl-4-yl-azetidin-3-yl)-2-(5-trifluoromethyl-benzo[d]isoxazol-3-ylamino)-acetamide] | 6.48 |
| COC(F)(c1ccc2c(c1)c(NCC(=O)NC1CN(C3CCC(O)(c4ccc(C)nc4)CC3)C1)nn2C)C(F)(F)F (stereo not drawn) [Example 103, N-{1-[4-Hydroxy-4-(6-methyl-pyridin-3-yl)-cyclohexyl]-azetidin-3-yl}-2-[1-methyl-5-(1,2,2,2-tetrafluoro-1-methoxy-ethyl)-1H-indazol-3-ylamino]-acetamide] | 7.66 |
| O=C(CNc1noc2ccc(C(F)(F)F)cc12)NC1CN(C2CCC(O)(c3cncs3)CC2)C1 (stereo not drawn) [Example 3, N-[1-(4-Hydroxy-4-thiazol-5-yl-cyclohexyl)-azetidin-3-yl]-2-(5-trifluoromethyl-benzo[d]isoxazol-3-ylamino)-acetamide] | 7.51 |
| COc1ccc(C2(O)CCC(N3CC(NC(=O)CNc4nn(C)c5ccc(C(F)(OC)C(F)(F)F)cc45)C3)CC2)cn1 (stereo not drawn) [Example 102, N-{1-[4-Hydroxy-4-(6-methoxy-pyridin-3-yl)-cyclohexyl]-azetidin-3-yl}-2-[1-methyl-5-(1,2,2,2-tetrafluoro-1-methoxy-ethyl)-1H-indazol-3-ylamino]-acetamide] | 7.48 |
| O=C(CNc1n[nH]c2ccc(C(F)(F)F)nc12)NC1CN([C@H]2CC[C@@](O)(c3cncs3)CC2)C1 [Example 104, N-(1-((1R,4R)-4-hydroxy-4-(thiazol-5-yl)cyclohexyl)azetidin-3-yl)-2-((5-(trifluoromethyl)-1H-pyrazolo[4,3-b]pyridin-3-yl)amino)acetamide] | 6.64 |
| Cn1nc(NCC(=O)NC2CN(C3CCC(NC(=O)OC(C)(C)C)CC3)C2)c2cc(C(F)(F)F)ccc21 (stereo not drawn) [Example 31, (4-{3-[2-(1-Methyl-5-trifluoromethyl-1H-indazol-3-ylamino)-acetylamino]-azetidin-1-yl}-cyclohexyl)-carbamic acid tert-butyl ester] | 7.12 |
| C=CCOC1CCC(N2CC(NC(=O)CNc3nn(C)c4ccc(C(F)(F)F)cc34)C2)CC1 (stereo not drawn) [Example 37, N-[1-(4-Allyloxy-cyclohexyl)-azetidin-3-yl]-2-(1-methyl-5-trifluoromethyl-1H-indazol-3-ylamino)-acetamide] | 6.87 |
| COc1ccc(C2(O)CCC(N3CC(NC(=O)CNc4n[nH]c5ccc(C(F)(F)F)cc45)C3)CC2)cn1 (stereo not drawn) [Example 44, N-{1-[4-Hydroxy-4-(6-methoxy-pyridin-3-yl)-cyclohexyl]-azetidin-3-yl}-2-(5-trifluoromethyl-1H-indazol-3-ylamino)-acetamide] | 7.80 |
| CC(C)C1CCC(N2CC(NC(=O)CNc3nn(Cc4ccccc4)c4ccc(C(F)(F)F)cc34)C2)CC1 (stereo not drawn) [Example 98, 2-(1-Benzyl-5-trifluoromethyl-1H-indazol-3-ylamino)-N-[1-(4-isopropyl-cyclohexyl)-azetidin-3-yl]-acetamide] | 5.23 |
| O=C(CNc1noc2ccc(C(F)(F)F)cc12)NC1CN(C2CCC(c3ccc4c(c3)OCO4)CC2)C1 (stereo not drawn) [Example 1, N-[1-(4-Benzo[1,3]dioxol-5-yl-cyclohexyl)-azetidin-3-yl]-2-(5-trifluoromethyl-benzo[d]isoxazol-3-ylamino)-acetamide] | 7.44 |
| COc1ccc(C2(O)CCC(N3CC(NC(=O)CNc4noc5ccc(C(F)(F)F)cc45)C3)CC2)cn1 (stereo not drawn) [Example 2, N-{1-[4-Hydroxy-4-(6-methoxy-pyridin-3-yl)-cyclohexyl]-azetidin-3-yl}-2-(5-trifluoromethyl-benzo[d]isoxazol-3-ylamino)-acetamide] | 7.64 |
| Cn1nc(NCC(=O)NC2CN(C3CCC(C(=O)NCCO)CC3)C2)c2cc(C(F)(F)F)ccc21 (stereo not drawn) [Example 40, 4-{3-[2-(1-Methyl-5-trifluoromethyl-1H-indazol-3-ylamino)-acetylamino]-azetidin-1-yl}-cyclohexane carboxylic acid (2-hydroxy-ethyl)-amide] | 6.52 |
| CCOC(=O)C1CCC(N2CC(NC(=O)CNc3nn(C)c4ccc(OC(F)(F)F)cc34)C2)CC1 (single isomer, unassigned) [Example 58] | 7.35 |
| CCC(O)[C@H]1CC[C@@H](N2CC(NC(=O)CNc3n[nH]c4ncc(C(F)(F)F)cc34)C2)CC1 (single isomer, unassigned) [Example 105] | 6.48 |
| Cn1nc(NCC(=O)NC2CN(C3CCC(C(N)=O)CC3)C2)c2cc(C(F)(F)F)ccc21 (stereo not drawn) [Example 39, 4-{3-[2-(1-Methyl-5-trifluoromethyl-1H-indazol-3-ylamino)-acetylamino]-azetidin-1-yl}-cyclohexane carboxylic acid amide] | 6.42 |
| CCc1ncc(C2(O)CCC(N3CC(NC(=O)CNc4nn(C)c5ccc(C(O)C(F)(F)F)cc45)C3)CC2)s1 (stereo not drawn) [Example 62, N-{1-[4-(2-Ethyl-thiazol-5-yl)-4-hydroxy-cyclohexyl]-azetidin-3-yl}-2-[1-methyl-5-(2,2,2-trifluoro-1-hydroxy-ethyl)-1H-indazol-3-ylamino]-acetamide] | 5.82 |
| CC(C)(C)NC(=O)n1nc(NCC(=O)NC2CN(C3CCC(O[Si](C)(C)C(C)(C)C)CC3)C2)c2cc(C(F)(F)F)ccc21 (stereo not drawn) [Example 84, 3-[({1-[4-(tert-Butyl-dimethyl-silanyloxy)-cyclohexyl]-azetidin-3-ylcarbamoyl}-methyl)-amino]-5-trifluoromethyl-indazole-1-carboxylic acid tert-butylamide] | 6.06 |
| Cn1ccnc1C1(O)CCC(N2CC(NC(=O)CNc3nn(C)c4ccc(C(F)(F)F)cc34)C2)CC1 (stereo not drawn) [Example 27, N-{1-[4-Hydroxy-4-(1-methyl-1H-imidazol-2-yl)-cyclohexyl]-azetidin-3-yl}-2-(1-methyl-5-trifluoromethyl-1H-indazol-3-ylamino)-acetamide] | 5.85 |
| O=C(CNc1noc2ccc(OC(F)(F)F)cc12)NC1CN(C2CCC(c3ccc4c(c3)OCO4)CC2)C1 (stereo not drawn) [Example 15, N-[1-(4-Benzo[1,3]dioxol-5-yl-cyclohexyl)-azetidin-3-yl]-2-(5-trifluoromethoxy-benzo[d]isoxazol-3-ylamino)-acetamide] | 8.00 |
| NC(=O)n1nc(NCC(=O)NC2CN(C3CCC(O)(c4nccs4)CC3)C2)c2cc(C(F)(F)F)ccc21 (stereo not drawn) [Example 81, 3-({[1-(4-Hydroxy-4-thiazol-2-yl-cyclohexyl)-azetidin-3-ylcarbamoyl]-methyl}-amino)-5-trifluoromethyl-indazole-1-carboxylic acid amide] | 7.54 |
| O=C(CNc1n[nH]c2ccc(C(F)(F)F)cc12)NC1CN(C2CCC(c3ccc4c(c3)OCO4)CC2)C1 (stereo not drawn) [Example 45, N-[1-(4-Benzo[1,3]dioxol-5-yl-cyclohexyl)-azetidin-3-yl]-2-(5-trifluoromethyl-1H-indazol-3-ylamino)-acetamide] | 8.18 |
| Cc1ccc(C2(O)CCC(N3CC(NC(=O)CNc4nn(CCO)c5ccc(C(F)(F)F)cc45)C3)CC2)cn1 (stereo not drawn) [Example 74, 2-[1-(2-Hydroxy-ethyl)-5-trifluoromethyl-1H-indazol-3-ylamino]-N-{1-[4-hydroxy-4-(6-methyl-pyridin-3-yl)-cyclohexyl]-azetidin-3-yl}-acetamide] | 7.26 |
| CCOc1ccc(C2(O)CCC(N3CC(NC(=O)CNc4nn(C(N)=O)c5ccc(C(F)(F)F)cc45)C3)CC2)cn1 (stereo not drawn) [Example 83, 3-[({1-[4-(6-Ethoxy-pyridin-3-yl)-4-hydroxy-cyclohexyl]-azetidin-3-ylcarbamoyl}-methyl)-amino]-5-trifluoromethyl-indazole-1-carboxylic acid amide] | 7.66 |
